Patent publication US10214542B2, “Modified macrocyclic compounds” (BAYER PHARMA AKTIENGESELLSCHAFT, priority 2015, dated 2019)
Read-outs that look alike come from different tables or passages of the source.

Legend:
CDK9/CycT1 = target: T1, CDK9/CycT1 (Homo sapiens, UniProt P50750); experiment: CDK9/CycT1 kinase assay (TR-FRET, Method 1a); type: biochemical; settings: 10 μM ATP; for IC50: Method 1a; for Selectivity CDK9 over CDK2: IC50 (CDK2)/IC50 (CDK9): Methods 1a and 2a
T1 construct: Recombinant full-length His-tagged human CDK9 and CycT1; His; purchased Invitrogen PV4131; host or cells: insect cells
T1 sequence (P50750 whole entry): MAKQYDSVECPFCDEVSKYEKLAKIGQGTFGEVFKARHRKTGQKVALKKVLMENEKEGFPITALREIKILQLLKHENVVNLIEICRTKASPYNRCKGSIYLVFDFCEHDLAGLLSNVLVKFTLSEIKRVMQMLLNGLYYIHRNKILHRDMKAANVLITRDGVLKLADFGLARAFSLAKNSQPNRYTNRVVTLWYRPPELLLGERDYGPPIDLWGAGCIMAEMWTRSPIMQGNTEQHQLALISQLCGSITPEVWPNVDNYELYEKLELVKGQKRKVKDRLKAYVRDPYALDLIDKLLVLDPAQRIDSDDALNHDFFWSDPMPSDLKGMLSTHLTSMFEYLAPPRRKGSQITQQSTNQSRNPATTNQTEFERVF
T1 sequence (O60563 whole entry partner): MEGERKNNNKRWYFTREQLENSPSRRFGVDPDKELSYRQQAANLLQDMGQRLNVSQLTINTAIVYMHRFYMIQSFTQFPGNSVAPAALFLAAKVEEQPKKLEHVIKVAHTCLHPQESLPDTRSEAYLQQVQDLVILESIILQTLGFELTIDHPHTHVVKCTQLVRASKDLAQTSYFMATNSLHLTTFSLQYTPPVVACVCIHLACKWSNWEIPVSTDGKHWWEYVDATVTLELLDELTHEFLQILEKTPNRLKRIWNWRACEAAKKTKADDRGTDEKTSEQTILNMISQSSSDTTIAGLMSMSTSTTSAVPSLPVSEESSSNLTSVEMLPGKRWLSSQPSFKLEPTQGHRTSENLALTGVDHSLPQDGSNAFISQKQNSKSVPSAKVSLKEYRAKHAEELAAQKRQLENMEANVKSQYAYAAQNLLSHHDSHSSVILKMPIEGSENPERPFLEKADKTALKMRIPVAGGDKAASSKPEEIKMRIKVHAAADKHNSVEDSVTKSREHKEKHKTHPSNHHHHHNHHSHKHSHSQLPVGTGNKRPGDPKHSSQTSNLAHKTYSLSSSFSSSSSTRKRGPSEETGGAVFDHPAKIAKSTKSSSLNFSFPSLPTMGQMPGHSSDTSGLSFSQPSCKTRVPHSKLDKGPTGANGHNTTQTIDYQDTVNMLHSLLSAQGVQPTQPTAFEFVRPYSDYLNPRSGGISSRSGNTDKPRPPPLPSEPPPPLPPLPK
Description: 1a. CDK9/CycT1 Kinase Assay:
CDK9/CycT1-inhibitory activity of compounds of the present invention was quantified employing the CDK9/CycT1 TR-FRET assay as described in the following paragraphs:
Recombinant full-length His-tagged human CDK9 and CycT1, expressed in insect cells and purified by Ni-NTA affinity chromatography, were purchased from Invitrogen (Cat. No PV4131). As substrate for the kinase reaction biotinylated peptide biotin-Ttds-YISPLKSPYKISEG (C-terminus in amid form) was used which can be purchased e.g. from the company JERINI Peptide Technologies (Berlin, Germany).
(§1) For the assay 50 nl of a 100 fold concentrated solution of the test compound in DMSO was pipetted into a black low volume 384 well microtiter plate (Greiner Bio-One, Frickenhausen, Germany), 2 μl of a solution of CDK9/CycT1 in aqueous assay buffer [50 mM Tris/HCl pH 8.0, 10 mM MgCl2, 1.0 mM dithiothreitol, 0.1 mM sodium ortho-vanadate, 0.01% (v/v) Nonidet-P40 (Sigma)] were added and the mixture was incubated for 15 min at 22° C. to allow pre-binding of the test compounds to the enzyme before the start of the kinase reaction. […] The concentration of CDK9/CycT1 was adjusted depending of the activity of the enzyme lot and was chosen appropriate to have the assay in the linear range, typical concentrations were in the range of 1 μg/mL. The reaction was stopped by the addition of 5 μl of a solution of TR-FRET detection reagents (0.2 μM streptavidine-XL665 [Cisbio Bioassays, Codolet, France] and 1 nM anti-RB(pSer807/pSer811)-antibody from BD Pharmingen [#558389] and 1.2 nM LANCE EU-W1024 labeled anti-mouse IgG antibody [Perkin-Elmer, product no. AD0077]) in an aqueous EDTA-solution (100 mM EDTA, 0.2% (w/v) bovine serum albumin in 100 mM HEPES pH 7.5).
(§2) The resulting mixture was incubated 1 h at 22° C. to allow the formation of complex between the phosphorylated biotinylated peptide and the detection reagents. Subsequently the amount of phosphorylated substrate was evaluated by measurement of the resonance energy transfer from the Eu-chelate to the streptavidine-XL. Therefore, the fluorescence emissions at 620 nm and 665 nm after excitation at 350 nm was measured in a HTRF reader, e.g. a Rubystar (BMG Labtechnologies, Offenburg, Germany) or a Viewlux (Perkin-Elmer). The ratio of the emissions at 665 nm and at […] was taken as the measure for the amount of phosphorylated substrate. The data were normalised (enzyme reaction without inhibitor=0% inhibition, all other assay components but no enzym=100% inhibition).

A2780 cells = experiment: Proliferation assay, Cell Titre-Glo viability (Method 3); type: cell-based, human; settings: A2780, 72-hour exposure, read-out: Inhibition of A2780 cell proliferation IC50
Experimental: A2780 human ovarian carcinoma cells (ECACC #93112519) and non-adherent MOLM-13 human acute myeloid leukemia cells (DSMZ ACC 554) were seeded at a density of 3,000 cell/well (A2780) or 5,000 cells/well (MOLM-13) in a 96-well multititer plate in 150 μL of growth medium supplemented 10% fetal calf serum. After 24 hours, cell viability of one plate (zero-point plate) was determined with the Cell Titre-Glo Luminescent Cell Viability Assay (Promega), while the medium of the other plates was supplemented with the test substances in various concentrations (0 μM, as well as in the range of 0.0001-10 μM; the final concentration of the solvent dimethyl sulfoxide was adjusted to 0.1%) using a Hewlett-Packard HP D300 Digital Dispenser. Cell viability was assessed after 72-hour exposure with the Cell
Titre-Glo Luminescent Cell Viability Assay (Promega). IC50 values (inhibitory concentration at 50% of maximal effect) were determined by means of a 4 parameter fit on measurement data which were normalized to vehicle (DMSO) treated cells (=100%) and measurement readings taken immediately before compound exposure (=0%).

CDK2/CycE = target: T2, CDK2/CycE (Homo sapiens, UniProt P24941); experiment: CDK2/CycE kinase assay (TR-FRET, Method 2a); type: biochemical; settings: 10 μM ATP
T2 construct: GST; purchased ProQinase GmbH (Freiburg, Germany); host or cells: insect cells (Sf9)
Description: 2a. CDK2/CycE Kinase Assay:
CDK2/CycE-inhibitory activity of compounds of the present invention was quantified employing the CDK2/CycE TR-FRET assay as described in the following paragraphs:
Recombinant fusion proteins of GST and human CDK2 and of GST and human CycE, expressed in insect cells (Sf9) and purified by Glutathion-Sepharose affinity chromatography, were purchased from ProQinase GmbH (Freiburg, Germany). As substrate for the kinase reaction biotinylated peptide biotin-Ttds-YISPLKSPYKISEG (C-terminus in amid form) was used which can be purchased e.g. from the company JERINI Peptide Technologies (Berlin, Germany).
as §1, with “CDK2/CycE” for “CDK9/CycT1”, “130 ng/mL.” for “1 μg/mL.”
as §2, with “TR-FRET” for “HTRF”

IC50 (CDK9/CycT1) | Selectivity CDK9 over CDK2: IC50 (CDK2)/IC50 (CDK9) (CDK9/CycT1) | IC50 (A2780 cells; Homo sapiens, A2780, 72 h) | IC50 (CDK2/CycE) | IC50 (A2780 cells) | Structure (SMILES)
3.4 nM | 8.2 | 5.2 nM | 28 nM |  | CS(=N)(=O)Cc1cc2nc(c1)Nc1cc(c(F)cn1)-c1ccc(F)cc1OCCCCCN2 (racemic) [Example 10, (rac)-17,21-difluoro-10-[(S-methylsulfonimidoyl)methyl]-2,3,4,5,6,7-hexahydro-13H-12,8-(azeno)-14,18-(metheno)-1,7,13,15-benzoxatriazacycloicosine]
5.1 nM | 6.7 | 4.6 nM | 34 nM |  | CN1CCCCOc2cc(F)ccc2-c2cc(ncc2F)Nc2cc(CS(C)(=N)=O)cc1n2 (racemic) [Example 11, (rac)-16,20-difluoro-6-methyl-9-[(S-methylsulfonimidoyl)methyl]-3,4,5,6-tetrahydro-2H-7,11-(azeno)-17,13-(metheno)-1,6,12,14-benzoxatriazacyclononadecine]
8.9 nM | 29.4 | 31 nM | 262 nM |  | CC(C)(C)OC(=O)N=S(C)(=O)Cc1cc2cc(c1)OCCCCNc1cc(F)ccc1-c1nc(ncc1F)N2 (racemic) [Example 15, (rac)-tert-butyl[{[16,20-difluoro-2,3,4,5-tetrahydro-1H,12H-13,17-(azeno)-11,7-(metheno)-6,1,12,14-benzoxatriazacyclononadecin-9-yl]methyl}(methyl)oxido-λ^6-sulfanylidene]carbamate]
3.9 nM | 7.7 | 8.2 nM | 30 nM |  | CS(=N)(=O)Cc1cc2cc(c1)OCCCCNc1cc(F)ccc1-c1nc(ncc1F)N2 (racemic) [Example 16, (rac)-16,20-difluoro-9-[(S-methylsulfonimidoyl)methyl]-2,3,4,5-tetrahydro-1H-17,13-(azeno)-7,11-(metheno)-6,1,12,14-benzoxatriazacyclononadecine]
4.2 nM | 17.6 | 6.5 nM | 74 nM |  | CN1CCCCNc2cc(F)ccc2-c2nc(ncc2F)Nc2cc(CS(C)(=N)=O)cc1c2.O=CO (racemic) [Example 17, (rac)-16,20-difluoro-6-methyl-9-[(S-methylsulfonimidoyl)methyl]-1,2,3,4,5,6-hexahydro-12H-17,13-(azeno)-11,7-(metheno)-1,6,12,14-benzotetraazacyclononadecine; salt with formic acid]
15 nM | 24.7 | > 100 nM | 371 nM |  | C[S+]([O-])Cc1cc2nc(c1)OCCCCCc1cc(F)ccc1-c1cc(ncc1F)N2 (racemic) [Example 19, (rac)-2,19-difluoro-9-[(methylsulfinyl)methyl]-14,15,16,17-tetrahydro-6H,13H-7,11-(azeno)-5,1-(metheno)-12,4,6-benzoxadiazacyclononadecine]
5.5 nM | 29.5 | > 100 nM | 162 nM | 161 nM | CS(=N)(=O)Cc1cc2nc(c1)OCCCCCc1cc(F)ccc1-c1cc(ncc1F)N2 (racemic) [Example 20, (rac)-2,19-difluoro-9-[(S-methylsulfonimidoyl)methyl]-14,15,16,17-tetrahydro-6H,13H-7,11-(azeno)-5,1-(metheno)-12,4,6-benzoxadiazacyclononadecine]
5.2 nM | 20.0 | 13 nM | 104 nM |  | CN1CCCCOc2cc(F)ccc2-c2nc(ncc2F)Nc2cc(CS(C)(=N)=O)cc1c2 (racemic) [Example 23, (rac)-16,20-difluoro-6-methyl-9-[(S-methylsulfonimidoyl)methyl]-3,4,5,6-tetrahydro-2H,12H-13,17-(azeno)-11,7-(metheno)-1,6,12,14-benzoxatriazacyclononadecine]
